Source: publication PMC10082216 (Nature Communications, 2023)
Like-named read-outs stand apart in the source and are kept apart here.

Experiment: TD-6450 phase I clinical study (SAD/MAD): pharmacokinetics
Assay type: in vivo, human
Details: human; for TD-6450 Concentration (ng/ml), Female subjects: in vivo; for TD-6450 Concentration (ng/ml), Female subjects / concentration at 1 h / concentration at 2 h / concentration at 3 h / concentration at 4 h / concentration at 6 h / concentration at 8 h / concentration at 12 h / concentration at 15 min / concentration at 24 h / concentration at 30 min / concentration at 48 h / concentration at 72 h / concentration at 96 h / concentration at 120 h / concentration at 144 h / concentration at 168 h: female; for concentration at 1 h / concentration at 2 h / concentration at 3 h / concentration at 4 h / concentration at 6 h / concentration at 8 h / concentration at 12 h / concentration at 15 min / concentration at 24 h / concentration at 30 min / concentration at 48 h / concentration at 72 h / concentration at 96 h / concentration at 120 h / concentration at 144 h / concentration at 168 h: Female subjects, read-out: Concentration
Protocol: Primary and secondary outcomes were pre-defined as follows: Safety and tolerability as a primary outcome, pharmacokinetics as a secondary outcome. Safety and tolerability were evaluated using standard measures, including adverse event (AE) monitoring, clinical laboratory tests (hematology, serum chemistry, coagulation, and urinalysis), vital signs, physical examinations, and 12-lead electrocardiograms (ECGs). […]
This study was conducted in two parts, Part A (SAD) and Part B (MAD). For the Part A, the age of enrolled subjects ranged from 20 to 60 years, with a mean age range of 32.1 to 46.2 years. Most subjects were male (73 total subjects) and most were white (55 subjects) or black (22 subjects). For Part B of the study, ages ranged from 23 to 60 years with a similar mean age across treatment groups. Most subjects were male (25 total subjects) and all were either white (18 subjects) or black (12 subjects). For each part of the study, the mean body mass index (BMI) and creatinine clearance were similar across treatment groups. […] Part A: Healthy subjects were sequentially enrolled and randomly assigned to each dose cohort (up to 10 dose-ascending cohorts were planned, including a fed arm in the food effect cohort) to receive either a single dose of TD-6450 or placebo. For each dose cohort, 8 subjects were randomized in a 3:1 ratio (6 subjects received TD-6450 and 2 subjects received placebo). The starting dose of TD-6450 was 0.5 mg with a planned maximum dose of 1000 mg. Upon review of the 500-mg cohort PK data, the decision was made to not escalate to the 1000-mg cohort because of exposure saturation at ≥ 500 mg. The following doses were administered: 0.5 mg, 1.5 mg, 5 mg, 15 mg, 30 mg, 60 mg, 120 mg, 240 mg, and 500 mg. Part B: Healthy subjects were sequentially enrolled in 3 ascending dose cohorts (TD-6450 60 mg, 120 mg, and 240 mg) and randomly assigned to receive either TD-6450 or placebo as once daily doses for 14 days. For each dose cohort, 10 subjects were randomized in a 4:1 ratio (8 subjects received TD-6450 and 2 subjects received placebo). Blinded safety, tolerability, and available PK data after each dose cohort were reviewed by the Safety Data Review Committee (SDRC) before escalation to the next dosing cohort for both part A and B. Subjects of the clinical study were randomly assigned to each cohort. Randomizations codes were assigned to the subjects. All study subjects, study investigators, and the sponsor’s staff involved in the conduct of the study were blinded to treatment assignment. The only personnel who had access to the randomization code before database lock were: The pharmacist or pharmacy staff member who prepared drug or placebo capsules for administration to the subject according to the randomization code and the bioanalytical contract laboratory that analyzed the PK samples (plasma and urine).

## CNC(=O)N1C[C@@H](C)N(c2ccc(C(=O)Nc3ccc(-c4ccc(-c5c[nH]c([C@@H]6CCCN6C(=O)[C@@H](NC(=O)OC)C(C)C)n5)cc4)c(OC(F)(F)F)c3)cn2)C[C@@H]1C [TD-6450]
Both sexes, plasma, oral, 120 mg, MAD 120 mg, day 1, read-out: Cmax Mean ± SD, D1
  Cmax at 1 day: 216 ± 58 nM
Both sexes, plasma, oral, 120 mg, MAD 120 mg, day 14, read-out: Cmax Mean ± SD, D14
  Cmax at 14 day: 1010 ± 349 nM
Both sexes, plasma, oral, 120 mg, MAD 120 mg, day 14, read-out: t1/2 Mean ± SD, D14 (converted)
  half-life at 14 day: 66.4 ± 15 h
Both sexes, plasma, oral, 120 mg, SAD 120 mg, read-out: Cmax Mean ± SD
  Cmax: 174 ± 93.9 nM
Both sexes, plasma, oral, 120 mg, SAD 120 mg, read-out: t1/2 Mean ± SD (converted)
  half-life: 78.4 ± 13 h
Both sexes, plasma, oral, 240 mg, MAD 240 mg, day 1, read-out: Cmax Mean ± SD, D1
  Cmax: 459 ± 203 nM
Both sexes, plasma, oral, 240 mg, MAD 240 mg, day 14, read-out: Cmax Mean ± SD, D14
  Cmax: 1770 ± 218 nM
Both sexes, plasma, oral, 240 mg, MAD 240 mg, day 14, read-out: t1/2 Mean ± SD, D14 (converted)
  half-life: 59.8 ± 12 h
Both sexes, plasma, oral, 240 mg, SAD 240 mg, read-out: Cmax Mean ± SD
  Cmax: 278 ± 134 nM
Both sexes, plasma, oral, 240 mg, SAD 240 mg, read-out: t1/2 Mean ± SD (converted)
  half-life: 64.7 ± 7.7 h
Both sexes, plasma, oral, 500 mg, SAD 500 mg, read-out: Cmax Mean ± SD
  Cmax: 244 ± 114 nM
Both sexes, plasma, oral, 500 mg, SAD 500 mg, read-out: t1/2 Mean ± SD (converted)
  half-life: 54.9 ± 5.5 h
4 h
  TD-6450 Concentration (ng/ml), Female subjects: 48.60 ng/mL
6 h
  TD-6450 Concentration (ng/ml), Female subjects: 213.00 ng/mL
8 h
  TD-6450 Concentration (ng/ml), Female subjects: 215.00 ng/mL
plasma, oral, 0.5 mg, SAD arm NCT02022306, Dose 0.50, 1 Hour
  concentration at 1 h: 0 ng/mL
plasma, oral, 0.5 mg, SAD arm NCT02022306, Dose 0.50, 2 Hours
  concentration at 2 h: 0 ng/mL
plasma, oral, 0.5 mg, SAD arm NCT02022306, Dose 0.50, 3 Hours
  concentration at 3 h: 0.52 ng/mL
plasma, oral, 0.5 mg, SAD arm NCT02022306, Dose 0.50, 4 Hours
  concentration at 4 h: 0.48 ng/mL
plasma, oral, 0.5 mg, SAD arm NCT02022306, Dose 0.50, 6 Hours
  concentration at 6 h: 0.67 ng/mL
plasma, oral, 0.5 mg, SAD arm NCT02022306, Dose 0.50, 8 Hours
  concentration at 8 h: 0.31 ng/mL
plasma, oral, 0.5 mg, SAD arm NCT02022306, Dose 0.50, 12 Hours
  concentration at 12 h: 0 ng/mL
plasma, oral, 0.5 mg, SAD arm NCT02022306, Dose 0.50, 15 Minutes
  concentration at 15 min: 0 ng/mL
plasma, oral, 0.5 mg, SAD arm NCT02022306, Dose 0.50, 24 Hours
  concentration at 24 h: 0 ng/mL
plasma, oral, 0.5 mg, SAD arm NCT02022306, Dose 0.50, 30 Minutes
  concentration at 30 min: 0 ng/mL
plasma, oral, 0.5 mg, SAD arm NCT02022306, Dose 0.50, 48 Hours
  concentration at 48 h: 0.26 ng/mL
plasma, oral, 0.5 mg, SAD arm NCT02022306, Dose 0.50, 72 Hours
  concentration at 72 h: 0.28 ng/mL
plasma, oral, 0.5 mg, SAD arm NCT02022306, Dose 0.50, 96 Hours
  concentration at 96 h: 0 ng/mL
plasma, oral, 0.5 mg, SAD arm NCT02022306, Dose 0.50, 120 Hours
  concentration at 120 h: 0 ng/mL
plasma, oral, 0.5 mg, SAD arm NCT02022306, Dose 0.50, 144 Hours
  concentration at 144 h: 0 ng/mL
plasma, oral, 0.5 mg, SAD arm NCT02022306, Dose 0.50, 168 Hours
  concentration at 168 h: 0 ng/mL
plasma, oral, 5 mg, SAD arm NCT02022306, Dose 5.00, 1 Hour
  concentration at 1 h: 0.91 ng/mL
plasma, oral, 5 mg, SAD arm NCT02022306, Dose 5.00, 2 Hours
  concentration at 2 h: 2.32 ng/mL
plasma, oral, 5 mg, SAD arm NCT02022306, Dose 5.00, 3 Hours
  concentration at 3 h: 3.81 ng/mL
plasma, oral, 5 mg, SAD arm NCT02022306, Dose 5.00, 4 Hours
  concentration at 4 h: 4.11 ng/mL
plasma, oral, 5 mg, SAD arm NCT02022306, Dose 5.00, 6 Hours
  concentration at 6 h: 4.27 ng/mL
plasma, oral, 5 mg, SAD arm NCT02022306, Dose 5.00, 8 Hours
  concentration at 8 h: 3.7 ng/mL
plasma, oral, 5 mg, SAD arm NCT02022306, Dose 5.00, 12 Hours
  concentration at 12 h: 3.01 ng/mL
plasma, oral, 5 mg, SAD arm NCT02022306, Dose 5.00, 15 Minutes
  concentration at 15 min: 0 ng/mL
plasma, oral, 5 mg, SAD arm NCT02022306, Dose 5.00, 24 Hours
  concentration at 24 h: 2.55 ng/mL
plasma, oral, 5 mg, SAD arm NCT02022306, Dose 5.00, 30 Minutes
  concentration at 30 min: 0 ng/mL
plasma, oral, 5 mg, SAD arm NCT02022306, Dose 5.00, 48 Hours
  concentration at 48 h: 2.13 ng/mL
plasma, oral, 5 mg, SAD arm NCT02022306, Dose 5.00, 72 Hours
  concentration at 72 h: 1.75 ng/mL
plasma, oral, 5 mg, SAD arm NCT02022306, Dose 5.00, 96 Hours
  concentration at 96 h: 1.15 ng/mL
plasma, oral, 5 mg, SAD arm NCT02022306, Dose 5.00, 144 Hours
  concentration at 144 h: 0.77 ng/mL
plasma, oral, 5 mg, SAD arm NCT02022306, Dose 5.00, 168 Hours
  concentration at 168 h: 0.61 ng/mL
plasma, oral, 15 mg, SAD arm NCT02022306, Dose 15.00, 1 Hour
  concentration at 1 h: 1.46 ng/mL
plasma, oral, 15 mg, SAD arm NCT02022306, Dose 15.00, 2 Hours
  concentration at 2 h: 10.1 ng/mL
plasma, oral, 15 mg, SAD arm NCT02022306, Dose 15.00, 3 Hours
  concentration at 3 h: 13.9 ng/mL
plasma, oral, 15 mg, SAD arm NCT02022306, Dose 15.00, 4 Hours
  concentration at 4 h: 18 ng/mL
plasma, oral, 15 mg, SAD arm NCT02022306, Dose 15.00, 6 Hours
  concentration at 6 h: 18.1 ng/mL
plasma, oral, 15 mg, SAD arm NCT02022306, Dose 15.00, 8 Hours
  concentration at 8 h: 15.1 ng/mL
plasma, oral, 15 mg, SAD arm NCT02022306, Dose 15.00, 12 Hours
  concentration at 12 h: 10.7 ng/mL
plasma, oral, 15 mg, SAD arm NCT02022306, Dose 15.00, 15 Minutes
  concentration at 15 min: 0 ng/mL
plasma, oral, 15 mg, SAD arm NCT02022306, Dose 15.00, 24 Hours
  concentration at 24 h: 9.09 ng/mL
plasma, oral, 15 mg, SAD arm NCT02022306, Dose 15.00, 30 Minutes
  concentration at 30 min: 0 ng/mL
plasma, oral, 15 mg, SAD arm NCT02022306, Dose 15.00, 48 Hours
  concentration at 48 h: 6.98 ng/mL
plasma, oral, 15 mg, SAD arm NCT02022306, Dose 15.00, 72 Hours
  concentration at 72 h: 5.88 ng/mL
plasma, oral, 15 mg, SAD arm NCT02022306, Dose 15.00, 96 Hours
  concentration at 96 h: 5.19 ng/mL
plasma, oral, 15 mg, SAD arm NCT02022306, Dose 15.00, 120 Hours
  concentration at 120 h: 4.42 ng/mL
